{"source": "patent US20210252023A1", "about": "“METHODS AND COMPOSITIONS FOR TREATING AND/OR PREVENTING THE PROGRESSION AND/OR ONSET OF AGE-RELATED NEURODEGENERATION” (Enterin, Inc., priority 2018, published 2021)", "key": {"[1]": {"assay": "Neuroregeneration in treated adult mouse (cell number in brain areas)", "format": "in vivo", "description": "The hypothalamus is of particular interest because it happens to be the site of localization of Aminosterol 1436 in the brain."}, "HIV": {"tested_on": "HIV", "details": "tissue culture; U.S. Pat. No. 5,763,430; cited from earlier work"}, "[2]": {"assay": "Brain distribution of radioactive Aminosterol 1436 after IV or ICV administration (FIG. 1)", "format": "in vivo", "details": "radioactive compound, rat, peripheral vein (IV) or 3rd ventricle (ICV)", "description": "The exact mechanism by which Aminosterol 1436 achieves its effect on preventing, delaying onset, and/or treating neurodegeneration, delaying maturity, retarding aging, and increasing potential lifespan is not known. However, without being bound by theory, Applicant theorizes that the effect of Aminosterol 1436 is likely in part due to the drug's effects on the hypothalamus within the brain of the animal."}, "[3]": {"assay": "Dose response of delay in growth of BDF1 mice (Example 1, FIG. 2)", "format": "in vivo, B6D2F1 (BDF1) mice", "details": "5 and 10 mg/kg IV; data not shown", "protocol": "An experiment was conducted to explore the dose response to a delay in growth of B6D2F1 (BDF1) mice to Aminsoterol 1436. 30 day old male BDF1 mice received either vehicle or Aminosterol 1436 intraveneously (IV) at 5 mg/kg or 10 mg/kg (n=15 for each treatment arm) every 3 days until 51 days of age. The Aminosterol 1436 was administered as a aqueous solution in water. BDF1 mice are available from Charles River Laboratories. The animals were fed standard lab chow, offered ad libitum. The animals were weighed and body length measured every 5 days. […] However, while the control animals reached maturity at 120 days, the animals that received 5 mg/kg of Aminosterol 1436 reached maturity at 150 days, corresponding to a 25% delay in reaching maturity, as measured by end weight. […] Most importantly, both treated and untreated animals reached normal adult dimensions, albeit at different rates."}}, "note": "Entries after “also recorded” stand apart in the source; their conditions may differ."}
{"smiles": "CC(C)[C@@H](CC[C@@H](C)[C@H]1CC[C@H]2[C@@H]3[C@H](O)C[C@H]4C[C@@H](NCCCNCCCCNCCCN)CC[C@]4(C)[C@H]3CC[C@]12C)OS(=O)(=O)O", "note": "[Aminosterol 1436, trodusquemine]", "values": [{"measurement": "neuroregeneration (number of cells in subependymal zone, olfactory bulb, hypothalamus, thalamus)", "setting": "[1]", "value": "stimulates neuroregeneration"}, {"measurement": "antiviral activity against HIV", "setting": "HIV", "value": "exhibits antiviral activity against HIV in tissue culture"}, {"measurement": "accumulation in the brain", "setting": "[2]", "value": "accumulation of Aminosterol 1436 within the centers of the brain that control growth, maturation, and senescence; also recorded: accumulates within the centers of the brain that control growth, maturation and senescence"}, {"measurement": "linear growth", "setting": "[3]", "value": "slowed to a corresponding degree"}]}
